The numbers were not newly measured in patent US8048407B2, “In situ gelling self-reactive materials for embolization” (priority 2003, dated 2011), which cites them from elsewhere.

For the data set the following is noted: literature studies.

Take `C=CC(=O)NCNC(=O)C=C` [NMBA, N,N-methylenebisacrylamide]: the cross-link efficiency is 0.0066.
